The source made the active and inactive calls. How the calls were made is not given here.
System: rodent carcinogenicity bioassays, tumor incidence
Assay: CCRIS carcinogenicity studies
Summary of the method: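 Archive of carcinogenicity, mutagenicity, tumor promotion and tumor inhibition results drawn from journals, NCI reports and other sources, expert-reviewed; covers 1985-2011 and is no longer updated.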

Cc1cccc(C)c1N
carcinogen call (Species: RAT, Strain/Sex: CD/FEMALE, Route: ORAL, Dose: 0, 300, 1000, 3000 PPM IN FEED FOR 102 WK (STUDY DURATION: 104 WK), Dose: 0, 300, 1000, 3000 PPM IN FEED FOR 102 WK (STUDY DURATION: 104 WK), Tumor Site: Type of Lesion: SUBCUTANEOUS TISSUE: FIBROMA, FIBROMA OR FIBROSARCOMA, NASAL CAVITY: PAPILLARY ADENOMA, ADENOMA OR PAPILLARY ADENOMA, CA): active; positive
carcinogen call (Species: RAT, Strain/Sex: CD/MALE, Route: ORAL, Dose: 0, 300, 1000, 3000 PPM IN FEED FOR 102 WK (STUDY DURATION: 104 WK), Dose: 0, 300, 1000, 3000 PPM IN FEED FOR 102 WK (STUDY DURATION: 104 WK), Tumor Site: Type of Lesion: SUBCUTANEOUS TISSUE: FIBROMA, FIBROMA OR NEUROFIBROMA, FIBROMA OR FIBROSARCOMA, NASAL CAVITY: PAPILLARY ADENOMA, CARCINO): active; positive

CCCN(C)N=O
carcinogen call (Species: HAMSTER, Strain/Sex: SYRIAN/FEMALE, Route: GAVAGE, Dose: 0, 2.1 MG/KG 1/WK FOR 23-30 WK (TOTAL DOSE: 0; 0.6 MMOL) (STUDY DURATION: LIFETIME), Dose: 0, 2.1 MG/KG 1/WK FOR 23-30 WK (TOTAL DOSE: 0; 0.6 MMOL) (STUDY DURATION: LIFETIME), Tumor Site: Type of Lesion: LIVER: HEPATOCELLULAR ADENOMA, HEMANGIOSARCOMA, NASAL MUCOSA: CARCINOMA): active; positive
carcinogen call (Species: HAMSTER, Strain/Sex: SYRIAN/MALE,FEMALE, Route: SUBCUTANEOUS, Dose: 12.5, 25, 50 MG/KG 1/WK, Dose: 12.5, 25, 50 MG/KG 1/WK, Tumor Site: Type of Lesion: NASAL CAVITY: CARCINOMA, EPIDERMOID TUMOR, MUCOEPIDERMOID TUMOR, TRACHEA: PAPILLARY POLYP, LUNG: ADENOMA, CARCINOMA, LIV, Tumor Site: Type of Lesion: NASAL CAVITY: CARCINOMA, EPIDERMOID TUMOR, MUCOEPIDERMOID TUMOR, TRACHEA: PAPILLARY POLYP, LUNG: ADENOMA, CARCINOMA, LIV): active; positive
carcinogen call (Species: HAMSTER, Strain/Sex: SYRIAN/MALE, Route: GAVAGE, Dose: 0, 2.1 MG/KG 1/WK FOR 23-30 WK (TOTAL DOSE: 0; 0.6 MMOL) (STUDY DURATION: LIFETIME), Dose: 0, 2.1 MG/KG 1/WK FOR 23-30 WK (TOTAL DOSE: 0; 0.6 MMOL) (STUDY DURATION: LIFETIME), Tumor Site: Type of Lesion: LIVER: HEPATOCELLULAR ADENOMA, HEMANGIOSARCOMA, LUNG: ALVEOLAR/BRONCHIAL ADENOMA, NASAL MUCOSA: CARCINOMA, Tumor Site: Type of Lesion: LIVER: HEPATOCELLULAR ADENOMA, HEMANGIOSARCOMA, LUNG: ALVEOLAR/BRONCHIAL ADENOMA, NASAL MUCOSA: CARCINOMA): active; positive
carcinogen call (Species: MOUSE, Strain/Sex: NMRI/FEMALE, Route: SUBCUTANEOUS, Dose: 0.05, 0.1, 0.2 OF LD50 (77.1 MG/KG) 1/WK FOR LIFE, Dose: 0.05, 0.1, 0.2 OF LD50 (77.1 MG/KG) 1/WK FOR LIFE, Tumor Site: Type of Lesion: NASAL CAVITY: SQUAMOUS CELL PAPILLOMA, SQUAMOUS CELL CARCINOMA, LARYNX: PAPILLOMA, CARCINOMA (IN SITU), SQUAMOUS CELL CA): active; positive

CCN(CC)CCCC(C)Nc1c2ccc(Cl)cc2nc2ccc(OC)cc12 (stereo not given)
carcinogen call (Species: Mouse, Strain/Sex: CD-1/Female (23/24)/(24/24)(23/24)(22/23), Route: Intraperitoneal, Dose: 0, 10, 50, 150 mg/kg on days 8 and 15 after birth (Study duration: 52 weeks) (Test material solvent: 1% w/v carboxymethy, Dose: 0, 10, 50, 150 mg/kg on days 8 and 15 after birth (Study duration: 52 weeks) (Test material solvent: 1% w/v carboxymethy): inactive; negative
carcinogen call (Species: Mouse, Strain/Sex: CD-1/Male (32/32)/(23/24)(23/24)(25/25), Route: Intraperitoneal, Dose: 0, 10, 50, 150 mg/kg on days 8 and 15 after birth (Study duration: 52 weeks) (Test material solvent: 1% w/v carboxymethy, Dose: 0, 10, 50, 150 mg/kg on days 8 and 15 after birth (Study duration: 52 weeks) (Test material solvent: 1% w/v carboxymethy): inactive; negative

Oc1ccccc1
carcinogen call (Species: MOUSE, Strain/Sex: B6C3F1/FEMALE, Route: ORAL, Dose: 0, 2500, 5000 PPM IN DIET, Dose: 0, 2500, 5000 PPM IN DIET): inactive; negative
carcinogen call (Species: MOUSE, Strain/Sex: B6C3F1/MALE, Route: ORAL, Dose: 0, 2500, 5000 PPM IN DIET, Dose: 0, 2500, 5000 PPM IN DIET): inactive; negative
carcinogen call (Species: RAT, Strain/Sex: F344/FEMALE, Route: ORAL, Dose: 0, 2500, 5000 PPM IN DIET, Dose: 0, 2500, 5000 PPM IN DIET): inactive; negative
carcinogen call (Species: RAT, Strain/Sex: F344/MALE, Route: ORAL, Dose: 0, 2500, 5000 PPM IN DIET, Dose: 0, 2500, 5000 PPM IN DIET): inactive; negative

c1ccc2c(c1)cc1ccc3cc4ccccc4c4ccc2c1c34
carcinogen call (Species: HAMSTER, Route: SUBCUTANEOUS, Tumor Site: Type of Lesion: INJECTION SITE): active; positive
carcinogen call (Species: MOUSE, Route: DERMAL, Tumor Site: Type of Lesion: INTEGUMENTARY SYSTEM (SKIN)): active; positive
carcinogen call (Species: MOUSE, Route: SUBCUTANEOUS, Tumor Site: Type of Lesion: INJECTION SITE): active; positive

[Ga]#[As]
carcinogen call (Species: MOUSE, Strain/Sex: B6C3F1/FEMALE, Route: INHALATION, Dose: 0, 0.1, 0.5, 1 MG/M3 6 HR/D 5D/WK FOR 106 WK (STUDY DURATION: 106 WK), Dose: 0, 0.1, 0.5, 1 MG/M3 6 HR/D 5D/WK FOR 106 WK (STUDY DURATION: 106 WK)): inactive; negative
carcinogen call (Species: MOUSE, Strain/Sex: B6C3F1/MALE, Route: INHALATION, Dose: 0, 0.1, 0.5, 1 MG/M3 6 HR/D 5D/WK FOR 105 WK (STUDY DURATION: 105 WK), Dose: 0, 0.1, 0.5, 1 MG/M3 6 HR/D 5D/WK FOR 105 WK (STUDY DURATION: 105 WK)): inactive; negative
carcinogen call (Species: MOUSE, Strain/Sex: ICR/MALE, Route: INTRAPERITONEAL, Dose: 0, 48, 480 MG/KG AS GALLIUM SUSPENDED IN OLIVE OIL ONCE (STUDY DURATION: 18 MO), Dose: 0, 48, 480 MG/KG AS GALLIUM SUSPENDED IN OLIVE OIL ONCE (STUDY DURATION: 18 MO)): inactive; negative
carcinogen call (Species: MOUSE, Strain/Sex: ICR/MALE, Route: SUBCUTANEOUS, Dose: 0, 48, 480 MG/KG AS GALLIUM SUSPENDED IN OLIVE OIL ONCE (STUDY DURATION: 18 MO), Dose: 0, 48, 480 MG/KG AS GALLIUM SUSPENDED IN OLIVE OIL ONCE (STUDY DURATION: 18 MO)): inactive; negative
carcinogen call (Species: RAT, Strain/Sex: F344/N/FEMALE, Route: INHALATION, Dose: 0, 0.01, 0.1, 1 MG/M3 6 HR/D 5D/WK FOR 105 WK (STUDY DURATION: 105 WK), Dose: 0, 0.01, 0.1, 1 MG/M3 6 HR/D 5D/WK FOR 105 WK (STUDY DURATION: 105 WK), Tumor Site: Type of Lesion: LUNG: ALVEOLAR/BRONCHIOLAR ADENOMA): active; positive
carcinogen call (Species: RAT, Strain/Sex: F344/N/MALE, Route: INHALATION, Dose: 0, 0.01, 0.1, 1 MG/M3 6 HR/D 5D/WK FOR 105 WK (STUDY DURATION: 105 WK), Dose: 0, 0.01, 0.1, 1 MG/M3 6 HR/D 5D/WK FOR 105 WK (STUDY DURATION: 105 WK)): inactive; negative

CN(CCCC(O)c1cccnc1)N=O (stereo not given)
carcinogen call (Species: MOUSE, Strain/Sex: STRAIN-A/FEMALE, Route: INTRAPERITONEAL, Dose: 0, 10, 50 UMOL TOTAL DOSE ADMINISTERED IN SUBDOSES 3/WK FOR 7 WK (STUDY DURATION: 37 WK), Dose: 0, 10, 50 UMOL TOTAL DOSE ADMINISTERED IN SUBDOSES 3/WK FOR 7 WK (STUDY DURATION: 37 WK), Tumor Site: Type of Lesion: LUNG: TUMOR): active; positive
carcinogen call (Species: RAT, Strain/Sex: F344/MALE, Route: ORAL, Dose: 0, 5 PPM IN DRINKING WATER FOR DURATION OF STUDY (TOTAL DOSE: 0; 0.69 MMOL/KG) (STUDY DURATION: 112 WK), Dose: 0, 5 PPM IN DRINKING WATER FOR DURATION OF STUDY (TOTAL DOSE: 0; 0.69 MMOL/KG) (STUDY DURATION: 112 WK), Tumor Site: Type of Lesion: LUNG: ADENOCARCINOMA, ADENOSQUAMOUS CARCINOMA, EXOCRINE PANCREAS: ACINAR ADENOMA OR ACINAR ADENOCARCINOMA OR DUCTAL ADEN): active; positive

O=C(O)C[C@@H]1NC(=O)[C@H](Cc2ccccc2)NC1=O
carcinogen call (Species: MOUSE, Strain/Sex: SWISS/FEMALE, Route: INTRAVESICULAR, Dose: 0, 4-4.4 MG IN CHOLESTEROL PELLET (STUDY DURATION: 26 WK)): inactive; negative
carcinogen call (Species: MOUSE, Strain/Sex: SWISS/FEMALE, Route: INTRAVESICULAR, Dose: 0, 4-4.4 MG IN CHOLESTEROL PELLET (STUDY DURATION: 56 WK)): inactive; negative

— PubChem BioAssay AID1259411 (Chemical Carcinogenesis Research Information System (CCRIS), 2018)
